Assay results from ChEMBL document CHEMBL4513146, “CO-ADD screening of Karazin Kharkiv National University (Ukraine) compounds”.

Legend:
Candida albicans = assay: microbe, parasite or virus in culture; conditions: ATCC 90028, ASSAY_TEST Inhibition of Fungal Growth, detection method Absorption (OD530)
Description: Antifungal activity against Candida albicans ATCC 90028 (CO-ADD:FG_001); MIC in YNB media using NBS plates, by OD630

Klebsiella pneumoniae = assay: microbe, parasite or virus in culture; conditions: ATCC 700603, 18 h, ASSAY_TEST Inhibition of Bacterial Growth, detection method Absorption (OD600), MEDIA CAMHB, plate type 384well, NBS, CORNING #3640
Description: Antibacterial activity against Klebsiella pneumoniae MDR ATCC 70063 (CO-ADD:GN_003); MIC in CAMBH media using NBS plates, by OD(600)

Acinetobacter baumannii = assay: microbe, parasite or virus in culture; conditions: ATCC 19606, 18 h, ASSAY_TEST Inhibition of Bacterial Growth, detection method Absorption (OD600), MEDIA CAMHB, plate type 384well, NBS, CORNING #3640
Description: Antibacterial activity against Acinetobacter baumannii ATCC 19606 (CO-ADD:GN_034); MIC in CAMBH media using NBS plates, by OD600

Escherichia coli = assay: microbe, parasite or virus in culture; conditions: ATCC 25922, 18 h, ASSAY_TEST Inhibition of Bacterial Growth, detection method Absorption (OD600), MEDIA CAMHB, plate type 384well, NBS, CORNING #3640
Description: Antibacterial activity against Escherichia coli ATCC 25922 (CO-ADD:GN_001); MIC in CAMBH media using NBS plates, by OD(600)

Staphylococcus aureus = assay: microbe, parasite or virus in culture; conditions: ATCC 43300, 18 h, ASSAY_TEST Inhibition of Bacterial Growth, detection method Absorption (OD600), MEDIA CAMHB, plate type 384well, NBS, CORNING #3640
Description: Antibacterial activity against Staphylococcus aureus MRSA ATCC 43300 (CO-ADD:GP_020); MIC in CAMBH media, using NBS plates, by OD(600)

HEK293 = assay: cells; format: functional; conditions: Homo sapiens, ATCC CRL1573, HEK293; ASSAY_TEST Inhibition of Cell Viability; detection method Resazurin; Fluorescence (ex560/em590); MEDIA DMEM with 10% FBS; plate type 384well; TC; CORNING #3712; time 18 hr
Pseudomonas aeruginosa [1] = assay: microbe, parasite or virus in culture; conditions: ATCC 27853, 18 h, ASSAY_TEST Inhibition of Bacterial Growth, detection method Absorption (OD600), MEDIA CAMHB, plate type 384well, NBS, CORNING #3640
Description: Antibacterial activity against Pseudomonas aeruginosa ATCC 27853 (CO-ADD:GN_042); MIC in CAMBH media using NBS plates, by OD(600)

Pseudomonas aeruginosa [2] = assay: Antibacterial activity against Pseudomonas aeruginosa PAO397 [PAO1 d(mexAB-oprM) d(mexCD-oprJ) d(mexEF-oprN) d(mexJKL) d(mexXY) d(opmH)] (CO-ADD:GN_211); MIC in CAMBH media using NBS plates, by OD(600); format: functional; conditions: ASSAY_TEST Inhibition of Bacterial Growth, detection method Absorption (OD600), MEDIA CAMHB, plate type 384well, CORNING #3640, time 18 hr

Description for Cryptococcus neoformans: Antifungal activity against Cryptococcus neoformans H99 ATCC 208821 (CO-ADD:FG_002); MIC in YNB media using NBS plates, by Resazurin OD(600-570)

MIC (Candida albicans) | MIC (Klebsiella pneumoniae) | MIC (Acinetobacter baumannii) | MIC (Cryptococcus neoformans) | MIC (Escherichia coli) | MIC (Staphylococcus aureus) | MIC (Pseudomonas aeruginosa [1]) | MIC (Pseudomonas aeruginosa [2]) | Compound | CC50 (HEK293)
> 32 µg/mL | > 32 µg/mL | > 32 µg/mL | > 32 µg/mL | > 32 µg/mL | > 32 µg/mL | > 32 µg/mL |  | Cc1cccc(NC(=O)Cn2nc3c(Sc4ccc(C)cc4C)nccn3c2=O)c1 | > 32 µg/mL
> 32 µg/mL | > 32 µg/mL | > 32 µg/mL | > 32 µg/mL | > 32 µg/mL | > 32 µg/mL | > 32 µg/mL | > 32 µg/mL | Cc1ccc(CN(c2ccc(F)c(F)c2)S(=O)(=O)c2cccn3cnnc23)cc1 | > 32 µg/mL
